What was measured:
rat mGluR5 receptor = molecular target: T1, rat mGluR5 receptor (Rattus norvegicus, UniProt P31424); test: mGluR5 assay on HEK-expressing rat mGluR5 (fluorescent cell based Ca2+ mobilization assay); conditions: for EC50: HEK-293 cells stably expressing rat mGluR5, no co-addition of glutamate, mean of at least three independent experiments in duplicate, read-out: Ca++ Flux (mean EC50); for activation of rat mGluR5 receptors without co-addition of glutamate: HEK-rat mGluR5 cell line, no added glutamate or agonist
T1 construct: expressed in transfected cells
T1 sequence (P31424 21-1171 isoform P31424-2 limits assumed): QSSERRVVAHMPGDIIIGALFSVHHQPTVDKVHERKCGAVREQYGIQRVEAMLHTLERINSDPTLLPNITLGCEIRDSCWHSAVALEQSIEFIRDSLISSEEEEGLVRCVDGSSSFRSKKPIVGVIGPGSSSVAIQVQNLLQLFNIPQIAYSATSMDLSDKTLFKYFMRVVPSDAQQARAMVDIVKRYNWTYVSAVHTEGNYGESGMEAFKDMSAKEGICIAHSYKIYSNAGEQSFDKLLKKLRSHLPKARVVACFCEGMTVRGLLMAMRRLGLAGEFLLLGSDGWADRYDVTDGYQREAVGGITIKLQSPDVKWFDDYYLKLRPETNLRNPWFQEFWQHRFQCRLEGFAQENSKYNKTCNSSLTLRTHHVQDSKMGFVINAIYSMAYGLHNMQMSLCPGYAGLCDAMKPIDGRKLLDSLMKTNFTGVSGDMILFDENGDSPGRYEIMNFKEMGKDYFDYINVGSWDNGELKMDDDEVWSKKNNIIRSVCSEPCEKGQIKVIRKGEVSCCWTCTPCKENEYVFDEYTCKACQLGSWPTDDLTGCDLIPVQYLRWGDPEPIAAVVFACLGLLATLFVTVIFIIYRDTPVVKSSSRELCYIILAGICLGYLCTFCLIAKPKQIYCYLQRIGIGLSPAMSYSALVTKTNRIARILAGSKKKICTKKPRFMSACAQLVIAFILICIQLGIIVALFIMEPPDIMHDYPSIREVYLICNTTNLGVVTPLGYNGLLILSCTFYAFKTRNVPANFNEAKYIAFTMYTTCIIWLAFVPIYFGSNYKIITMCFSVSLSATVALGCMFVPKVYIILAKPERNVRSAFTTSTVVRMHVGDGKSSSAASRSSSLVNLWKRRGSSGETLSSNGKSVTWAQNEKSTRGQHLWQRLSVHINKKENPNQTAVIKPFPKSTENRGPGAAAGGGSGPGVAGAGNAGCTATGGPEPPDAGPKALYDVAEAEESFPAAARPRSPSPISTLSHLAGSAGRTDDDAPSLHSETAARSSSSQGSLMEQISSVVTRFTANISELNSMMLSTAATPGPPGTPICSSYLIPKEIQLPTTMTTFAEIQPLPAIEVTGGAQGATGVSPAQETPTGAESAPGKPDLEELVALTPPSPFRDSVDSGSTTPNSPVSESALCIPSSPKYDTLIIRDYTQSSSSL
Procedure: Positive functional expression of HEK-293 cells stably expressing rat mGluR5 receptor was determined by measuring intracellular Ca^2+ changes using a Fluorometric Imaging Plate Reader (FLIPR, Molecular Devices, Sunnyvale, Calif.) in response to glutamate or selective known mGluR5 agonists and antagonists. Rat mGluR5 RT-PCR products in HEK-293 cells were sequenced and found 100% identical to rat mGluR5 Genbank reference sequence (NM_017012). HEK-293 cells expressing rmGluR5 were maintained in media containing DMEM, dialyzed Fetal Bovine Serum (10%), Glutamax™ (2 mM), Penicillin (100 units/ml), Streptomycin (100 μg/ml), Geneticin (100 μg/ml) and Hygromycin-B (40 μg/ml) at 37° C./5% CO2.
After one day of incubation, cells were washed with assay buffer containing: 142 mM NaCl, 6 mM KCl, 1 mM Mg2SO4, 1 mM CaCl2, 20 mM HEPES, 1 g/L glucose, 0.125 mM sulfinpyrazone, pH 7.4. After 60 min of loading with 4 uM Fluo-4 (TefLabs, Austin, Tex.), the cells were washed three times with 50 μl of PBS Buffer and resuspended in […] of assay Buffer. The plates were then transferred to a Fluorometric Imaging Plate Reader (FLIPR, Molecular Devices, Sunnyvale, Calif.) for the assessment of intracellular calcium flux. After monitoring the baseline fluorescence for 10 seconds, increasing concentrations of representative compound (from 0.01 to 60 μM) of the present invention diluted in Assay Buffer (15 μl of 4× dilutions) was added to the cell. The final DMSO concentration in the assay was 0.3%. In each experiment, fluorescence was then monitored as a function of time for 3 minutes and the data analyzed using Microsoft Excel and GraphPad Prism. Each data point was also measured two times.
Under these experimental conditions, this HEK-rat mGluR5 cell line is able to directly detect positive allosteric modulators without the need of co-addition of glutamate or mGluR5 agonist.
The concentration-response curves of representative compounds of the present invention were generated using the Prism GraphPad software (Graph Pad Inc, San Diego, USA). The curves were fitted to a four-parameter logistic equation:
(Y=Bottom+(Top-Bottom)/(1+10̂((Log EC50−X)*Hill Slope)
allowing determination of EC50 values.
The Table 1 below represents the mean EC50 obtained from at least three independent experiments of selected molecules performed in duplicate.

mGluR5 = molecular target: T2, mGluR5 (Rattus norvegicus, UniProt P31424); conditions: Liu et al (2006), Zhang et al (2005); cited from earlier work
T2 construct: positive allosteric modulators of mGluR5 receptors in native preparations; endogenous in cells; host or cells: primary cortical astrocytes from Sprague-Dawley rat embryos (E16-19)
T2 sequence (P31424 21-1203): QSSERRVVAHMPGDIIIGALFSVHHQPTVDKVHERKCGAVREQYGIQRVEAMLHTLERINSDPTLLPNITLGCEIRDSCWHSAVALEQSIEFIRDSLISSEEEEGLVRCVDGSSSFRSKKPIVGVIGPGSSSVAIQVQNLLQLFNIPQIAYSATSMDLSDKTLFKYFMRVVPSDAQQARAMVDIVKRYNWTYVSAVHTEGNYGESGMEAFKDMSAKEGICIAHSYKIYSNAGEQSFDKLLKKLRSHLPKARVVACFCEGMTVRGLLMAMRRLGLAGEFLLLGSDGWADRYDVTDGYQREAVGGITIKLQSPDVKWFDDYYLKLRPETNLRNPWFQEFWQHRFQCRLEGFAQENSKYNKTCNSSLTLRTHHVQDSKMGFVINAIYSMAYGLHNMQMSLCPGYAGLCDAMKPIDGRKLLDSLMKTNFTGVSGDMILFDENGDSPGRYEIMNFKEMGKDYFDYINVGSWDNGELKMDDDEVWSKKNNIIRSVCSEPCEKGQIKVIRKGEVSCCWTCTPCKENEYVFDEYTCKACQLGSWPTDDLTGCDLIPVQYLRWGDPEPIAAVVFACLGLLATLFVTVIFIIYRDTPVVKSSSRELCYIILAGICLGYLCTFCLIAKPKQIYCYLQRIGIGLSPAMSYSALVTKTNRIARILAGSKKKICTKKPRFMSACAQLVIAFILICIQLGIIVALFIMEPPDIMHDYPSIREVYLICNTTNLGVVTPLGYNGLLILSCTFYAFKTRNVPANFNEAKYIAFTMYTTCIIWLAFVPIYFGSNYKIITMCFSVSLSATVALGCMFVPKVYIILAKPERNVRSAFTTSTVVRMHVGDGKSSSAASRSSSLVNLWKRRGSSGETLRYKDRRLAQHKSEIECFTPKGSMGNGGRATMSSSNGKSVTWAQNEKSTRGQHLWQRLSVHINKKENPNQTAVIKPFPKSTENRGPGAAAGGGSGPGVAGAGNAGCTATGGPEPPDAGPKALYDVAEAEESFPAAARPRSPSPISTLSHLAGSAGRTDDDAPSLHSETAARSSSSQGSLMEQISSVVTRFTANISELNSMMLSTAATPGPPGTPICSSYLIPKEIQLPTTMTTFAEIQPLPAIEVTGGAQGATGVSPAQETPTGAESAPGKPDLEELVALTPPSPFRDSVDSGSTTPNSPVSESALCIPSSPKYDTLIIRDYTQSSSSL

Row | SMILES | melting point | EC50 (rat mGluR5 receptor) | activity in rat cortical astrocytes culture in the absence of added glutamate (mGluR5) | activation of rat mGluR5 receptors without co-addition of glutamate (rat mGluR5 receptor)
1 | O=C(c1ccc(F)nc1)N1CCCC(c2noc(-c3cscn3)n2)C1 (centres unmarked) [Example 30, (6-Fluoro-pyridin-3-yl)-[3-(5-thiazol-4-yl-[1,2,4]oxadiazol-3-yl)-piperidin-1-yl]-methanone] | 90 °C | > 10 µM |  | 
2 | O=C(c1ccc(F)nc1)N1CCCC(c2noc(-c3ccc(F)cc3)n2)C1 (centres unmarked) [Example 9, {3-[5-(4-Fluoro-phenyl)-[1,2,4]oxadiazol-3-yl]-piperidin-1-yl}-(6-fluoro-pyridin-3-yl)-methanone] | 131 to 134 °C | < 1 µM |  | 
3 | O=C(c1ccc(F)cc1)N1CCCC(c2noc(-c3cscn3)n2)C1 (centres unmarked) [Example 8, (4-Fluoro-phenyl)-[3-(5-thiazol-4-yl-[1,2,4]oxadiazol-3-yl)-piperidin-1-yl]-methanone] | 128 °C | 1 to 10 µM |  | 
4 | Cc1cc(F)ccc1C(=O)N1CCCC(c2noc(-c3ccc(F)cc3)n2)C1 (centres unmarked) [Example 27, (4-Fluoro-2-methyl-phenyl)-{3-[5-(4-fluoro-phenyl)-[1,2,4]oxadiazol-3-yl]-piperidin-1-yl}-methanone] | 129 to 131 °C | 1 to 10 µM |  | 
5 | O=C(c1ccc(F)cc1F)N1CCCC(c2noc(-c3ccc(F)cc3F)n2)C1 (centres unmarked) [Example 19, (2,4-Difluoro-phenyl)-{3-[5-(2,4-difluoro-phenyl)-[1,2,4]oxadiazol-3-yl]-piperidin-1-yl}-methanone] | 101 °C | 1 to 10 µM |  | 
6 | O=C(c1ccc(F)nc1)N1CCCC(c2noc(-c3ccc(F)cc3F)n2)C1 (centres unmarked) [Example 25, {3-[5-(2,4-Difluoro-phenyl)-[1,2,4]oxadiazol-3-yl]-piperidin-1-yl}-(6-fluoro-pyridin-3-yl)-methanone] | 87 °C | 1 to 10 µM |  | 
7 | Cc1noc(C)c1C(=O)N1CCC[C@H](c2noc(-c3ccc(F)cc3)n2)C1 [Example 38, (3,5-Dimethyl-isoxazol-4-yl)-{(S)-3-[5-(4-fluoro-phenyl)-[1,2,4]oxadiazol-3-yl]-piperidin-1-yl}-methanone] | 85 °C | < 1 µM |  | 
8 | O=C(c1ccc(F)cc1F)N1CCCC(c2noc(-c3ccncc3)n2)C1 (centres unmarked) [Example 16, (2,4-Difluoro-phenyl)-[3-(5-pyridin-4-yl-[1,2,4]oxadiazol-3-yl)-piperidin-1-yl]-methanone] | 137 to 139 °C | 1 to 10 µM |  | 
9 | O=C(c1ccc(F)cc1)N1CCC[C@@H](c2noc(-c3ccc(F)cc3)n2)C1 [Example 2, (4-Fluoro-phenyl)-{(R)-3-[5-(4-fluoro-phenyl)-[1,2,4]oxadiazol-3-yl]-piperidin-1-yl}-methanone] | 120 to 123 °C | 1 to 10 µM |  | 
10 | O=C(c1ccc(F)cc1)N1CCCC(c2noc(-c3ccncc3)n2)C1 (centres unmarked) [Example 14, (4-Fluoro-phenyl)-[3-(5-pyridin-4-yl-[1,2,4]oxadiazol-3-yl)-piperidin-1-yl]-methanone] | 149 to 151 °C | 1 to 10 µM |  | 
11 | N#Cc1cccc(C(=O)Nc2cc(-c3ccccc3)nn2-c2ccccc2)c1 [CDPPB, reference compound] |  |  | inactive | activating
12 | O=C(Nc1ccc(Cl)cc1CN1C(=O)c2ccccc2C1=O)c1ccccc1O [CPPHA, reference compound] |  |  | inactive | activating
13 | O=C(c1ccc(F)nc1)N1CCCC(c2noc(-c3ccccn3)n2)C1 (centres unmarked) [Example 12, (6-Fluoro-pyridin-3-yl)-[3-(5-pyridin-2-yl-[1,2,4]oxadiazol-3-yl)-piperidin-1-yl]-methanone] | 124 to 126 °C | 1 to 10 µM |  | 
14 | Cc1cc(F)ccc1C(=O)N1CCCC(c2noc(-c3ccc(F)cc3F)n2)C1 (centres unmarked) [Example 31, {3-[5-(2,4-Difluoro-phenyl)-[1,2,4]oxadiazol-3-yl]-piperidin-1-yl}-(4-fluoro-2-methyl-phenyl)-methanone] | 110 °C | 1 to 10 µM |  | 
15 | O=C(c1ccc(F)c(F)c1)N1CCCC(c2noc(-c3ccncc3)n2)C1 (centres unmarked) [Example 15, (3,4-Difluoro-phenyl)-[3-(5-pyridin-4-yl-[1,2,4]oxadiazol-3-yl)-piperidin-1-yl]-methanone] | 132 to 134 °C | < 1 µM |  | 
16 | O=C(c1ccc(F)c(F)c1)N1CCC[C@H](c2noc(-c3ccc(F)cc3)n2)C1 [Example 37, (3,4-Difluoro-phenyl)-{(S)-3-[5-(4-fluoro-phenyl)-[1,2,4]oxadiazol-3-yl]-piperidin-1-yl}-methanone] | 120 °C | < 1 µM |  | 
17 | O=C(c1ccc(F)cc1F)N1CCCC(c2noc(-c3ccc(F)cc3)n2)C1 (centres unmarked) [Example 18, (2,4-Difluoro-phenyl)-{3-[5-(4-fluoro-phenyl)-[1,2,4]oxadiazol-3-yl]-piperidin-1-yl}-methanone] | 137 to 139 °C | < 1 µM |  | 
18 | O=C(c1ccc(F)cc1F)N1CCCC(c2noc(-c3ccccc3)n2)C1 (centres unmarked) [Example 33, (2,4-Difluoro-phenyl)-[3-(5-phenyl-[1,2,4]oxadiazol-3-yl)-piperidin-1-yl]-methanone] | 116 to 117 °C | < 1 µM |  | 
19 | O=C(c1ccc(F)c(F)c1)N1CCCC(c2noc(-c3ccc(F)cc3F)n2)C1 (centres unmarked) [Example 17, (3,4-Difluoro-phenyl)-{3-[5-(2,4-difluoro-phenyl)-[1,2,4]oxadiazol-3-yl]-piperidin-1-yl}-methanone] | 91 °C | < 1 µM |  | 
20 | O=C(c1ccc(F)cc1)N1CCCC(c2noc(-c3ccccn3)n2)C1 (centres unmarked) [Example 11, (4-Fluoro-phenyl)-[3-(5-pyridin-2-yl-[1,2,4]oxadiazol-3-yl)-piperidin-1-yl]-methanone] | 126 to 129 °C | 1 to 10 µM |  | 
21 | O=C(c1ccc(F)nc1)N1CCC[C@H](c2noc(-c3ccc(F)cc3)n2)C1 [Example 36, {(S)-3-[5-(4-Fluoro-phenyl)-[1,2,4]oxadiazol-3-yl]-piperidin-1-yl}-(6-fluoro-pyridin-3-yl)-methanone] | 103 to 104 °C | < 1 µM |  | 
22 | O=C(c1ccc(F)c(F)c1)N1CCCC(c2noc(-c3ccc(F)cc3)n2)C1 (centres unmarked) [Example 10, (3,4-Difluoro-phenyl)-{3-[5-(4-fluoro-phenyl)-[1,2,4]oxadiazol-3-yl]-piperidin-1-yl}-methanone] | 149 to 152 °C | < 1 µM |  | 
23 | O=C(c1ccc(F)cc1)N1CCC[C@H](c2noc(-c3ccc(F)cn3)n2)C1 [Example 44, (S)-(4-fluorophenyl)-{3-[5-(5-fluoropyridin-2-yl)-[1,2,4]oxadiazol-3-yl]-piperidin-1-yl}-methanone] | 108 to 110 °C | < 1 µM |  | 
24 | O=C(c1ccc(F)nc1)N1CCCC(c2noc(-c3ccccc3)n2)C1 (centres unmarked) [Example 29, (6-Fluoro-pyridin-3-yl)-[3-(5-phenyl-[1,2,4]oxadiazol-3-yl)-piperidin-1-yl]-methanone] | 109 to 111 °C | < 1 µM |  | 
25 | Fc1cccc(/C=N/N=C/c2cccc(F)c2)c1 [DFB, reference compound] |  |  | inactive | activating

Reference: patent US20090215822A1, “Substituted Oxadiazole Derivatives as Positive Allosteric Modulators of Metabotropic Glutamate Receptors” (NIKEM RESEARCH SRL, priority 2005, published 2009)
